Measured values as given in patent US12128099B2 (priority 2018, dated 2024).
Several values for one entry are separate records, joined by “and”; a condition that tells them apart may be missing. Identical values can stand only once. Like-named read-outs stand apart in the source and are kept apart here.

How the values were obtained:
THP-1 SAMD9 KD cells = assay type: cell-based, human; conditions: FIGS. 15A-15D, 16C
[1] = tested on: OC patient ascites-associated CD14+ monocytes
OvCa-2a = assay: cells; assay type: cell-based, human; conditions: read-out: calculated IC50
murine OC ID8 cells = assay type: cell-based
[2] = tested on: primary OC cells (OvCa-2a and OvCa-26); assay type: cell-based, human
ID8 disseminated tumor = tested on: ID8 disseminated tumor; set-up: species or system mice; conditions: mouse, in vivo
OvCa-26 = assay: cells; assay type: cell-based, human; conditions: read-out: calculated IC50
SKOV3 = assay: cells; assay type: cell-based, human

Nc1nc2c(ncn2[C@@H]2O[C@@H]3COP(=O)(O)O[C@H]4[C@@H](O)[C@H](n5cnc6c(N)ncnc65)O[C@@H]4COP(=O)(O)O[C@@H]2[C@@H]3O)c(=O)[nH]1 [2′3′-cGAMP]
IFNβ / ISG mRNA in SAMD9 KD cells versus control cells (THP-1 SAMD9 KD cells): comparably to control cells

O=[N+]([O-])c1ccc2c(c1)S(=O)(=O)C=C2 [Stattic]
IL-8 level [1]: unchanged levels of IL-8 | cytokine secretion (IL-10, IL-6) [1]: suppressive effect in cytokine secretion | toxicity [1]: did not cause noticeable toxicity

N.N.[Cl][Pt][Cl] [cisplatin]
MYXV DNA replication (MYXV): inhibits DNA replication of MYXV | IC50 (OvCa-2a): 3.6 µM | IC50 (murine OC ID8 cells): 2 µM | growth inhibition, drug treatment alone [2]: did not observe significant growth inhibition | Median survival (ID8 disseminated tumor): 113 days and 127 days | median survival time (ID8 disseminated tumor): 90 days | survival (ID8 disseminated tumor): 40% | IC50 (OvCa-26): 11.4 µM | IC50 (SKOV3; read-out: IC50): 8.4 µM

Nc1ccn([C@@H]2O[C@H](CO)[C@@H](O)C2(F)F)c(=O)n1 [gemcitabine]
IC50 (OvCa-2a; Homo sapiens): 960 µM | growth inhibition, drug treatment alone [2]: did not observe significant growth inhibition | median survival time (ID8 disseminated tumor): 78 days | therapeutic benefit, single-agent treatment given late (ID8 disseminated tumor): did not lead to significant therapeutic benefit | IC50 (OvCa-26; Homo sapiens): 14.6 µM | IC50 (SKOV3; Homo sapiens, SK-OV-3): 9.32 µM
